Experimental data as given in PMC5181585, “UMAMIT14 is an amino acid exporter involved in phloem unloading in Arabidopsis roots” (Journal of Experimental Botany, 2016).

Biological target: T1, UMAMIT18 (Arabidopsis thaliana, UniProt Q9LPF1)
T1 construct: gene At1g44800; cDNA in pDR196-Ws, expressed in yeast 22delta10alpha
T1 sequence (Q9LPF1 1-370): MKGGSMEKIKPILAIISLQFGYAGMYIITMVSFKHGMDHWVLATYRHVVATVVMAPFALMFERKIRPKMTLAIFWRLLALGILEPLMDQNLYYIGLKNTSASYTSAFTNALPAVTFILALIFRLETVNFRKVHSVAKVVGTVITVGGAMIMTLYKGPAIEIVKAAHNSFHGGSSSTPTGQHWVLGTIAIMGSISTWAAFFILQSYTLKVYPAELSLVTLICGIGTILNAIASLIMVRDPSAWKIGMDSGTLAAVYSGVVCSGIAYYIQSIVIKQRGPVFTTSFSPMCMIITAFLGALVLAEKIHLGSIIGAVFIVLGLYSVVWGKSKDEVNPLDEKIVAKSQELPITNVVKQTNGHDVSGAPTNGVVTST
Test: amino acid secretion into medium by yeast, UPLC
Format: cell-based
Details: export, 22 h growth in minimal medium, yeast 22delta10alpha

Row | SMILES | amino acid secretion into medium by yeast, UPLC (Gln peak not resolved from Arg) | amino acid secretion into medium by yeast, UPLC
1 | NC(=O)CC[C@H](N)C(=O)O [Gln] | Gln, Val, and Ile represented a larger proportion of the secreted amino acids for UMAMIT18 | –
2 | CC(C)[C@H](N)C(=O)O [Val] | – | Gln, Val, and Ile represented a larger proportion of the secreted amino acids for UMAMIT18
